Measurements: patent publication US9594084B2, “Phosphorylation of histones and uses thereof” (H. LEE MOFFITT CANCER CENTER AND RESEARCH INSTITUTE, priority 2012, dated 2017)

Key:
WEE1 [1] = target: T1, WEE1 (Homo sapiens, UniProt P30291); assay: Peptide Immunosandwich Assay (PIA) with purified WEE1; assay type: biochemical; design: GST; purchased Invitrogen; conditions: purified WEE1 protein (100 ng), 5 uM
Method: H2B Tyr37-phosphorylation was determined as described in the text.
In brief, Streptavidin coated 96-well plates (R&D systems) were incubated with biotinylated human histone H2B derived peptides […] (SEQ ID NO: 62, Y37 site is underlined). H2B derived phospho-peptide KRSRKESp[…] (SEQ ID NO: 63) was used as positive control. Any unbound areas on the plate were blocked with 3% BSA. Next, purified WEE1 protein (100 ng) prepared in kinase buffer (20 mM HEPES, 225 mM NaCl, 1% Triton X-100, 10% glycerol, phosphatase and protease inhibitors) supplemented with 1 uM ATP and 1 uM MgCl2. After 2 hours of incubation, plates were washed with phosphate buffered saline containing 0.1% Tween 20 (PBST) and reblocked in 3% BSA. The pY37-H2B or pTyr antibodies (at 1:1000 dilution) were added and incubated for 1 hour. Unbound antibodies were washed and HRP-conjugated anti-mouse secondary antibodies (1:5000) were added. The magnitude of phosphorylation was detected using developer solution (OPD tablets, Sigma) and after 20 minutes of incubation, the plates were read at 450 nm.
The Peptide Immunosandwich Assay was first validated using purified WEE1 protein (100 ng) and cancer derived cell lines (50 ug). […] PIA was also validated using cancer derived cells lines MDA-MB231 (low WEE1 activity) and LAPC4 cells (high WEE1 activity). […] As negative controls, H2B peptide alone or WEE1 enzyme alone were used. […]

WEE1 [2] = target: T1, WEE1; assay: pTyr37-H2B immunoprecipitation/immunoblot in synchronized H1975 cells; assay type: cell-based; design: endogenous in cells; host or cells: H1975; conditions: 6.30 hours post-release, 0.3 μM
Method: FIG. 13A is an immunoblot showing lysates from synchronized MEFs immunoprecipitated with pTyr37-H2B antibodies followed by immunoblotting with pTyr37-H2B antibody (top panel) or H2B antibody (bottom panel). FIG. 13B is an immunoblot showing cell lysates 6.30 hours post-release from H1975 cells synchronized by double thymidine alone (first column) or with 0.31 μM (second column), 0.62 μM (third column) and 1.25 μM (fourth column) MK1775 WEE1 inhibitor that were immunoprecipitated with pTyr37-H2B antibodies followed by immunoblotting with pTyr37-H2B, H2B, pTyr15-Cdc2, or Cdc2 antibodies. FIG. 13C is an immunoblot showing lysates collected at 0 and 6.30 hours post-release from synchronized MEFs transfected with control (first two columns) or WEE1 (last two columns) siRNAs that were immunoprecipitated with pTyr37-H2B antibodies followed by immunoblotting with pTyr37-H2B (top panel), H2B (second panel), WEE1 (third panel), or PTyr15-Cdc2 (bottom panel) antibodies. FIG. 13D is an immunoblot showing equimolar amounts of purified WEE1 (last three columns) and H2B (first three columns) proteins incubated in the presence (third column) or absence of WEE1 inhibitor (MK1775, 0.625 μM) for 1 hour at 30° C. and immunoblotted with pTyr37-H2B (top panel), H2B (middle panel), and WEE1 (bottom panel) antibodies. […]

T1 sequence (P30291 whole entry): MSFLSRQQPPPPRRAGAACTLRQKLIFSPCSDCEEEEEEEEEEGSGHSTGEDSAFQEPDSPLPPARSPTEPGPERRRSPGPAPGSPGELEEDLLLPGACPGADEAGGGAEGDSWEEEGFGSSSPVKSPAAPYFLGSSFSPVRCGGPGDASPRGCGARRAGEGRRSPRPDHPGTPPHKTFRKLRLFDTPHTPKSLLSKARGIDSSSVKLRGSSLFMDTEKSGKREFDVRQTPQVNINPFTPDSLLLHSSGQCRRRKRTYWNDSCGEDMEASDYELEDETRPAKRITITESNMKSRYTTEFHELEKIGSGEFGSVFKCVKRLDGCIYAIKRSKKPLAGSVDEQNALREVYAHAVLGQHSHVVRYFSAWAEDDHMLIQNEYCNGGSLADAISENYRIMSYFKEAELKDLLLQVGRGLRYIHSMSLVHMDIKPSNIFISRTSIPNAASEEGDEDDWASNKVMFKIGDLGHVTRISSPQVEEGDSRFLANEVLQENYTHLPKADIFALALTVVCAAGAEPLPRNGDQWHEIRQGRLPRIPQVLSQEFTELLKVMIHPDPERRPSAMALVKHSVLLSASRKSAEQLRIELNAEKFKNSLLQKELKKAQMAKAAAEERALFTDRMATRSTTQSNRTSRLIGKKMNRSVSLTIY

In the case of `C=CCn1c(=O)c2cnc(Nc3ccc(N4CCN(C)CC4)cc3)nc2n1-c1cccc(C(C)(C)O)n1` [MK-1775], the pY37-H2B levels (WEE1 [1]) is reported as “significant decrease” and the “pTyr37-phosphorylation of H2B” value (WEE1 [2]) is reported as “complete loss”.
